21 compounds from ChEMBL document CHEMBL1124032, “Quantitative structure-activity relationships for the inhibition of Escherichia coli dihydrofolate reductase by 5-(substituted benzyl)-2,4-diaminopyrimidines” (1988) can be followed below.

Molecules are shown by their SMILES.

Test [1] deals with T1, Dihydrofolate reductase (Escherichia coli) (UniProt P0ABQ4).
T1 sequence (whole entry): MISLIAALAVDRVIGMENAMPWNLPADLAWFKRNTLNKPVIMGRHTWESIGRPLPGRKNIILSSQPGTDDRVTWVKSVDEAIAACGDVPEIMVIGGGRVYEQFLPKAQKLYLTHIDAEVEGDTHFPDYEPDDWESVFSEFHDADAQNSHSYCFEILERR
Description: Apparent inhibitory (log 1/Ki) activity against Escherichia coli dihydrofolate reductase

Test [2] deals with Escherichia coli. The test is described as follows: The logarithm of the inverse of the concentration (log 1/C) for the inhibition of Escherichia coli 1515 (Escherichia coli) growth by 80%. The test is classed as functional.
The test system of test [3] is Escherichia coli. The test is described as follows: The logarithm of the inverse of the concentration (log 1/C) for the inhibition of Escherichia coli MB 1428 growth by 80%. The test is classed as functional.

For `COc1cc(Cc2cnc(N)nc2N)ccc1O`, the Log 1/Ki app in test [1] worked out at 9.05. In addition, the “Log 1/C” value in the test on Escherichia coli [2] is given as 6.45; in the test on Escherichia coli [3] it was 3.51.
In test [1], `Nc1ncc(Cc2cc(OCc3ccccc3)cc(OCc3ccccc3)c2)c(N)n1` gave a Log 1/Ki app of 8.77.
In test [1], `Nc1ncc(Cc2ccc(OCc3ccccc3)cc2)c(N)n1` displayed a Log 1/Ki app of 8.7.
The same measure, in the same setting: in the case of `CS(=O)(=O)Oc1cccc(Cc2cnc(N)nc2N)c1` it was 6.92; in that of `Cc1cc(C)cc(Cc2cnc(N)nc2N)c1`, 8.05.
Turning to `COc1ccc(Cc2cnc(N)nc2N)cc1OS(C)(=O)=O`, the Log 1/Ki app in test [1] was 8.96. Also, the “Log 1/C” value was determined as 6.42 with Escherichia coli [2] and 4.13 with Escherichia coli [3].
In the case of `CC(=O)Nc1ccc(Cc2cnc(N)nc2N)cc1[N+](=O)[O-]`, the Log 1/Ki app in test [1] was 6.97.
Same read-out and setting: in the case of `COc1ccc(Cc2cnc(N)nc2N)cc1C(F)(F)F` it was 7.69.
Turning to `COc1cc(Cc2cnc(N)nc2N)ccc1OCc1ccccc1`, the Log 1/Ki app in test [1] was 9.43. The “Log 1/C” value in the test with Escherichia coli [2] came out at 4.96; in the test with Escherichia coli [3] it was 5.02.
The like results for `CCCOc1cc(Cc2cnc(N)nc2N)cc(Br)c1OC` were, in that order, 8.96, 4.91 and 6.07.
The corresponding values for `CCOc1cc(Cc2cnc(N)nc2N)cc(OCC)c1` are 9.11, 6.54 and 4.77.
In test [1], `CS(=O)(=O)Oc1ccc(Cc2cnc(N)nc2N)cc1` yielded a Log 1/Ki app of 8.15.
The same measure, in the same setting: the same measure for `Nc1ncc(Cc2ccc(OC(F)(F)F)cc2)c(N)n1`: 6.57.
`COCCOc1ccc(Cc2cnc(N)nc2N)cc1OC`: the Log 1/Ki app in test [1] stood at 9.25. Further, the “Log 1/C” value in the test on Escherichia coli [2] came out at 5.82; with Escherichia coli [3], 4.3.
In the case of `COCCOc1cc(Cc2cnc(N)nc2N)ccc1OC`, the Log 1/Ki app in test [1] was 8.74.
Same read-out and setting: in the case of `CCCOc1cc(Cc2cnc(N)nc2N)cc(OCCC)c1` it was 8.8.
The compound `CCCCOc1cc(Cc2cnc(N)nc2N)cc(Br)c1OC` returned a Log 1/Ki app in test [1] of 8.96. Moreover, the figures for the “Log 1/C” value in the test on Escherichia coli [2] and with Escherichia coli [3] were 5.02 and 6.24, respectively.
Consider `CCCOc1cc(Cc2cnc(N)nc2N)cc(OCC)c1`, for which the Log 1/Ki app in test [1] turned out to be 8.49.
`Nc1ncc(Cc2ccc([N+](=O)[O-])cc2)c(N)n1` displayed a Log 1/Ki app in test [1] of 6.2.
The compound `COc1ccc(Cc2cnc(N)nc2N)cc1OCc1ccccc1` gave a Log 1/Ki app in test [1] of 10. For the same compound, the “Log 1/C” value with Escherichia coli [2] was determined as 4.96; in the test on Escherichia coli [3], 5.02.
The corresponding values for `CCCCOc1ccc(Cc2cnc(N)nc2N)cc1OC` are 9.01, 5.93 and 4.98.
